In US11400104B2, “Skeletal removal of bisphosphonates” (The Regents of the University of California, priority 2016, dated 2022):
Entries after “also recorded” stand apart in the source; their conditions may differ.

Columns and labels:
mouse maxilla = assay: intra-oral injection of AF647-ZOL into maxilla of mice pre-injected IV with FAM-ZOL, fluorescent biophotonics; type: in vivo
Experimental: FIG. 10 are representative images of mice maxilla. AF647-ZOL was orally injected into maxilla of mice pre-injected with 5-FAM-ZOL.
The mouse intra-oral injection protocol was established by using a Hamilton syringe with a 33-gauge needle. Under a surgical microscope, 2 μl solution was injected to the palatal gingiva of left first molar of mouse maxilla. After slow injection, the needle was left in the tissue for 3 minutes and then gently removed.
Using this method, 2 μl of 0 μM, 0.5 μM or 5.0 μM AF647-ZOL was injected to mouse maxillary oral mucosa to mice 6 days after retro-orbital IV injection of 100 μl of 50 μM FAM-ZOL. Mouse tissues were harvested 1 day after oral injection and maxillary bones were subjected to standardized fluorescent biophotonics image obtained using an excitation wavelength of 460 nm and a 515 nm filter (LAS3000, FUJIFILM Corp).

[1] = system: ZOL-induced mouse BRONJ model; assay: ZOL-induced mouse BRONJ/ONJ model (ZOL IV injection followed by maxillary first molar extraction); type: in vivo
Experimental: AF647-ZOL was applied by intra-oral injection or IV injection 1 day prior to tooth extraction. FIG. 16B are images of mouse maxilla and the oral mucosa inflammation and swelling (white dotted lines, left and right panels) with various degrees of jawbone exposure (arrow) at the tooth extraction site of ZOL-treated mice (BRONJ control: n−4). […]
Panel A is a diagram of the experimental time line. Mice treated by IV injection of ZOL (500 μg/kg) received an intra-oral injection of AF647-ZOL, MHDP or ETI (etidronate) one day prior to maxillary 1″ molar extraction. The development of ONJ was evaluated 14 days after tooth extraction.
The C57BL/6J (B6) mice model of ONJ is used. The consistent tissue source in this study is mouse maxillary bone with or without tooth extraction, as well as femurs, mandibles and L4/L5 lumber bones. Tooth extraction animal models for studying wound healing in mice have been well established in our and other laboratories. Systemic bisphosphonate treatment is accomplished by IV injection and the proposed local application of FL-BP is accomplished by intraoral injection to gingival/palatal tissue of mouse maxilla. Mice are subjected to maxillary molar extraction. After anesthesia and vital signs checked, the animal is placed on a bed supporting the isoflurane tubing while keeping the mouth opening. Ophthalmic ointment (bland, e.g., Lacrilube) is applied. The maxillary molar area is wiped with 0.12% Chlorhexidine gluconate solution (Peridex, oral rinse). An autoclaved dental explorer is used as an exodontia elevator after careful reflection of the cervical mucosa to minimize post-extraction discomfort. An autoclaved cotton swab is placed on the extraction socket until the initial blood coagulation is established. Maxillary 1st molar is then extracted unilaterally from so that the remaining untreated side can be utilized for chewing. In our previous experiments, the entire procedure takes about 5-15 minutes. […]
In a preliminary study female B6 mice were injected 500 μg/Kg ZOL (equivalent to 200 μl of 350 μM ZOL) via tail vein and one week later, maxillary left first molar was extracted. […]
Therefore, as schematically shown in FIG. 19B mouse maxillae were treated with ZOL and then either 2 μg of MHDP was orally injected to the site of the molar to be extracted or 100 μg of MHDP was IV injected and the sites of molar extraction of treated mouse maxilla were compared to controls.

[2] = system: mouse femur trabecular bone; assay: micro CT evaluation of mouse femur trabecular structure (anti-resorptive function in vivo); conditions: IV 184 μM×100 μL; femurs 2 weeks after injection; FIG. 14
Experimental: FIG. 19A to FIG. 19C present evidence that certain alkylidene bisphosphonates can be used to displace active BPs in vivo in the mouse model. […] FIG. 19B outlines the protocol for the experiments using MHDP to treat C57B16 mice. An ONJ-like lesion was generated by ZOL IV injection into the mouse, followed by extraction of the maxillary first molar. One day prior to the tooth extraction, a group of mice received intra-oral injection of 2 μg MHDP and another group received IV injection of 100 μg MHDP. FIG. 19C presents images of the mouse maxilla.
This study determines the anti-resorptive function of FL-BP in vivo, as compared to ZOL. Female B6 mice were injected with 50 μM ZOL (n=6), 50 μM FL-BP (n=6) or 0.9% NaCl vehicle solution (control: n=6) via tail vein. Three weeks later, mice were euthanized and femur and L4/L5 were harvested. After fixed in 10% buffered formalin, bone samples were subjected to micro CT analysis. The anti-resorptive function were quantitatively established by the trabecular bone three-dimensional morphometry (e.g., BV/TV, Tb.N, Tb.Th, TbSp). FL-BPs with minimal or no pharmacological BP function are used.
Mice were IV injected with 0.9% NaCl (vehicle solution), ZOL (184 μM×100 μL=5.0 μg/animal) or AF647-ZOL (184 μM×100 μL=22.0 μg/animal) and femurs were harvested 2 weeks after injection. The micro CT data were compared.

mouse cranial bone = assay: cranial bone displacement: AF647-ZOL pre-adsorbed via IV, FAM-ZOL sub-periosteal injection; type: in vivo; conditions: IV injection; cryo-cross sections
Experimental: FIG. 12A to FIG. 12C show the displacement and replacement of AF647-ZOL and 5-FAM-ZOL. FIG. 12A are fluorescent images of cranial bone. AF647-ZOL (50 μM) was pre-adsorbed on cranial bone via IV injection. 5-FAM-ZOL at the indicated doses was directly injected to the sub-periosteal space. […] The first bars of each set are for AF647-ZOL and the second bars of each set are for 5-FAM-ZOL. *, P<0.05 vs Veh by Dunnett's test.
Mice were pre-treated by 100 μl of 50 μM AF647-ZOL retro-orbital IV injection. Six days later, mice received sub-periosteal injection to cranial bone with 10 μl of 0 μM, 1 μM, 10 μM, or 50 μM FAM-ZOL. The cranial bone was harvested and soft tissues were removed. The fluorescent signals of AF647 and FAM were measured by standardized fluorescent biophotonics. The cranial bones were then prepared for cryosection. Cross-sections were made by the tape method and evaluated by confocal laser scanning microscopy.

mouse femurs = assay: AF647-ZOL signal in distant bone (femurs) in the BRONJ mouse model; type: in vivo
Experimental: AF647-ZOL was applied by intra-oral injection or IV injection 1 day prior to tooth extraction. FIG. 16B are images of mouse maxilla and the oral mucosa inflammation and swelling (white dotted lines, left and right panels) with various degrees of jawbone exposure (arrow) at the tooth extraction site of ZOL-treated mice (BRONJ control: n−4).
Mice received a bolus IV injection of ZOL (440 μg/Kg; 294 μM×100 μL=8.0 μg/animal) from retro-orbital venous plexus. […] The AF647-ZOL signal in distant bone was assessed in femurs.

[3] = AF647-ZOL IV 500 μM×100 μL 1 day before extraction, 2 weeks after extraction

Question: With `CC1(C)C(C=CC=CC=C2N(CCCS(=O)(=O)O)c3ccc(S(=O)(=O)O)cc3C2(C)CCCCCC(=O)NCC(O)C[n+]2ccn(CC(O)(P(=O)(O)O)P(=O)(O)O)c2)=[N+](CCCS(=O)(=O)O)c2ccc(S(=O)(=O)O)cc21` (stereo not drawn) [AF647-ZOL] as the compound, how does the “AF647 signal at and around the injection site on the palatal bone” value (mouse maxilla; 2 μl of 0, 0.5 or 5.0 μM intra-oral, harvested 1 day after) read?
Answer: Its value is “dose dependent adsorption”.

Question: And the “displacement of pre-adsorbed FAM-ZOL in maxilla” value (mouse maxilla; FAM-ZOL 100 μl of 50 μM IV 6 days before AF647-ZOL intra-oral injection, qualitative)?
Answer: The value was “pre-adsorbed FAM-ZOL was removed; also recorded: Reduction of FAM-ZOL signal was observed qualitatively”.

Question: And the “systemic distribution to the distant skeletal system (femur)” value (mouse maxilla; intra-oral injection)?
Answer: Its value is “did not result in systemic distribution to the distant skeletal system”.

Question: And the “histology of maxilla at the tooth extraction site: ONJ-like lesion” value ([1]; 2 weeks after extraction, one time oral injection in ZOL-mice, FIG. 20)?
Answer: The value was “did not develop an ONJ-like lesion”.

Question: What about the “BRONJ-like lesions, jawbone exposure” value [1, 3] of the same compound?
Answer: The value was “jawbone exposure was much attenuated; also recorded: attenuated BRONJ-like lesions”.

Question: What about the oral mucosa inflammation/swelling [1, 3] of the same compound?
Answer: The oral mucosa inflammation/swelling was “some mice which received an AF647-ZOL IV injection showed signs of oral mucosa inflammation/swelling”.

Question: What about the “prevention of BRONJ, tooth extraction wound healing” value ([1]; AF647-ZOL intra-oral 250 μM×2 μL 1 day before extraction, 2 weeks after extraction) of the same compound?
Answer: The value was “complete prevention of BRONJ; also recorded: excellent tooth extraction wound healing without chronic inflammation or swelling”.

Question: And the “development of ONJ-like lesions at the tooth extraction sites” value ([1]; ZOL 500 μg/kg IV, intra-oral injection one day prior to extraction, 14 days after extraction, FIG. 21)?
Answer: Its value is “appeared to be prevented”.

Question: What about the bone structural parameters [2] of the same compound?
Answer: The bone structural parameters was “did not change any of bone structural parameters”.

Question: What about the “location of AF647-ZOL labeling in cranial bone” value (mouse cranial bone) of the same compound?
Answer: Its value is “external and internal bone surfaces, as well as trabecular surface”.

Question: What about the “AF647-ZOL signal in femurs” value (mouse femurs; IV injection 500 μM×100 μL) of the same compound?
Answer: The value was “clear AF647-ZOL signal; also recorded: clearly observed”.

Question: What about the “AF647-ZOL signal in femurs” value (mouse femurs; intra-oral injection 250 μM×2 μL) of the same compound?
Answer: The value was “not and did not result in a detectable fluorescent signal”.
